Measured values from ChEMBL document CHEMBL1133764, “Synthesis and cytokine modulation properties of pyrrolo[2, 3-d]-4-pyrimidone nucleosides” (2000).

Experiments:
T-cell line [1] = test: Effect at 10 uM on PMA/ION-stimulated T-cell expression of the type 1 cytokine IFNgamma, determined in cell free supernatants by ELISA; format: functional, cell-based; conditions: Homo sapiens
T-cell line [2] = test: Effect at 10 uM on PMA/ION-stimulated T-cell expression of the type 2 cytokine IL-4, determined in cell free supernatants by ELISA; format: functional, cell-based; conditions: Homo sapiens
T-cell line [3] = test: Effect (10 uM) on PMA/ION-stimulated T-cell expression of the type 2 cytokine IL-4, which was determined in cell free supernatants by ELISA; format: functional, cell-based; conditions: Homo sapiens
T-cell line [4] = test: Effect (10 uM) on PMA/ION-stimulated T-cell expression of the type 1 cytokine IFN gamma, which was determined in cell free supernatants by ELISA; format: functional, cell-based; conditions: Homo sapiens
T-cell line [5] = test: Effect (10 uM) on PMA/ION-stimulated T-cell expression of the type 1 cytokine,IL-2 was determined in cell free supernatants by ELISA; format: functional, cell-based; conditions: Homo sapiens
T-cell line [6] = test: (§1) Effect (10 uM) on PMA/ION-stimulated T-cell expression of the type 1 cytokine, IFNgamma was determined in cell free supernatants by ELISA; format: functional, Homo sapiens
T-cell line [7] = test: Effect (10 uM) on PMA/ION-stimulated T-cell expression of the type 1 cytokine, IL-5 was determined in cell free supernatants by ELISA; format: functional, cell-based; conditions: Homo sapiens
T-cell line [8] = test: Effect (10 uM) on PMA/ION-stimulated T-cell expression of the type 1 cytokine,TNF-alpha was determined in cell free supernatants by ELISA; format: functional, cell-based; conditions: Homo sapiens
T-cell line [9] = test: Effect on PMA/ION-stimulated T-cell expression of the type 1 cytokine, IFNgamma was determined in cell free supernatants by ELISA; format: functional, cell-based; conditions: Homo sapiens
T-cell line [10] = test: Effect on PMA/ION-stimulated T-cell expression of the type 1 cytokine,IL-2 was determined in cell free supernatants by ELISA; format: functional, cell-based; conditions: Homo sapiens
T-cell line [11] = test: Effect on PMA/ION-stimulated T-cell expression of the type 1 cytokine,TNF-alpha was determined in cell free supernatants by ELISA; format: functional, cell-based; conditions: Homo sapiens
T-cell line [12] = test: Effect on PMA/ION-stimulated T-cell expression of the type 1 cytokine,IL-5 was determined in cell free supernatants by ELISA; format: functional, cell-based; conditions: Homo sapiens
T-cell line [13] = test: as §1; format: functional, cell-based; conditions: Homo sapiens
T-cell line [14] = test: Effect (10 uM) on PMA/ION-stimulated T-cell expression of the type 1 cytokine IL-2, which was determined in cell free supernatants by ELISA; format: functional, cell-based; conditions: Homo sapiens
T-cell line [15] = test: Effect (10 uM) on PMA/ION-stimulated T-cell expression of the type 1 cytokine IFNgamma, which was determined in cell free supernatants by ELISA; format: functional, cell-based; conditions: Homo sapiens
T-cell line [16] = test: Effect (10 uM) on PMA/ION-stimulated T-cell expression of the type 2 cytokine IL-5, which was determined in cell free supernatants by ELISA; format: functional, cell-based; conditions: Homo sapiens
T-cell line [17] = test: Effect (10 uM) on PMA/ION-stimulated T-cell expression of the type 1 cytokine TNF-alpha, which was determined in cell free supernatants by ELISA; format: functional, cell-based; conditions: Homo sapiens
T-cell line [18] = test: Effect (10 uM) on PMA/ION-stimulated T-cell expression of the type 2 cytokine, IL-4 was determined in cell free supernatants by ELISA; format: functional, cell-based; conditions: Homo sapiens

Structure (SMILES)	Concentration (T-cell line [1]) [pg/mL]	Concentration (T-cell line [2]) [pg/mL]	Concentration (T-cell line [3]) [pg/mL]	Concentration (T-cell line [4]) [pg/mL]	further results
NCc1cn([C@@H]2O[C@H](CO)[C@@H](O)[C@H]2O)c2nc[nH]c(=O)c12	9340	125	–	–	–
C[C@H](O)[C@H]1OC(n2cc(C#N)c3c(O)ncnc32)[C@H](O)[C@@H]1O (single isomer, unassigned; (+))	10900	146	–	–	–
C[C@@H](O)[C@H]1OC(n2cc(C(=N)NO)c3c(O)ncnc32)[C@H](O)[C@@H]1O (stereo not given in full)	–	–	186	12300	–
C[C@H](O)[C@H]1OC(n2cc(C(=N)N)c3c(O)ncnc32)[C@H](O)[C@@H]1O (single isomer, unassigned; (+))	10700	146	–	–	–
NCc1cn([C@@H]2O[C@H](CO)[C@@H](O)[C@@H]2O)c2nc[nH]c(=O)c12	10800	142	–	–	–
C[C@H]1OC(n2cc(C(=N)N)c3c(O)ncnc32)[C@H](O)[C@@H]1O (single isomer, unassigned; (+))	1310	152	–	–	–
N=C(NN)c1cn([C@@H]2O[C@H](CO)[C@@H](O)[C@@H]2O)c2nc[nH]c(=O)c12	9860	117	–	–	–
N/C(=N\O)c1cn(C2CCC(CO)O2)c2ncnc(O)c12 (single isomer, unassigned; (+))	–	–	152	11200	–
N=C(N)c1cn([C@@H]2O[C@H](CO)[C@@H](O)[C@H]2O)c2nc[nH]c(=O)c12	–	< 557	–	–	Concentration (T-cell line [5]): < 12700 pg/mL; IFN gamma concentration (T-cell line [6]): <5919 pg/mL; Concentration (T-cell line [7]): < 127 pg/mL; Concentration (T-cell line [8]): < 968 pg/mL
N/C(=N\O)c1cn([C@@H]2O[C@H](CO)[C@@H](O)[C@@H]2O)c2nc[nH]c(=O)c12	–	–	132	10400	–
NC(=S)c1cn(C2O[C@H](CO)[C@@H](O)[C@H]2O)c2ncnc(O)c12 (stereo not given in full)	–	176	–	–	Concentration (T-cell line [9]): 7480 pg/mL; Concentration (T-cell line [10]): 23000 pg/mL; Concentration (T-cell line [11]): 2220 pg/mL; Concentration (T-cell line [12]): 59 pg/mL
N=C(N)c1cn(C2CCC(CO)O2)c2ncnc(O)c12 (single isomer, unassigned; (+))	–	–	234	13300	–
N=C(NN)c1cn([C@@H]2O[C@H](CO)[C@@H](O)[C@H]2O)c2nc[nH]c(=O)c12	11900	207	–	–	–
N#CC1=CN([C@H]2C[C@H](O)[C@@H](CO)O2)C2=NC=NC(=O)C12 (single isomer, unassigned; (+))	11900	194	–	–	–
C[C@H]1OC(n2cc(C(=N)NO)c3c(O)ncnc32)[C@H](O)[C@@H]1O (single isomer, unassigned; (+))	–	–	149	10600	–
C[C@H]1OC(n2cc(C#N)c3c(O)ncnc32)[C@H](O)[C@@H]1O (single isomer, unassigned; (+))	9140	147	–	–	–
NC(=O)c1cn(C2O[C@H](CO)[C@@H](O)[C@H]2O)c2ncnc(O)c12 (single isomer, unassigned; (+))	–	183	–	–	Concentration (T-cell line [13]): 9140 pg/mL; Concentration (T-cell line [5]): 24400 pg/mL; Concentration (T-cell line [7]): 67 pg/mL; Concentration (T-cell line [8]): 2170 pg/mL
N/C(=N\O)c1cn([C@H]2O[C@@H](CO)[C@H](O)[C@@H]2O)c2nc[nH]c(=O)c12	–	–	142	9660	–
N/C(=N\O)c1cn([C@@H]2O[C@H](CO)[C@@H](O)[C@H]2O)c2nc[nH]c(=O)c12	–	–	236	–	Concentration (T-cell line [14]): 18000 pg/mL; Concentration (T-cell line [15]): 7270 pg/mL; Concentration (T-cell line [16]): 73 pg/mL; Concentration (T-cell line [17]): 1590 pg/mL
C[C@]1(CO)OC(n2cc(C(=N)N)c3c(O)ncnc32)[C@H](O)[C@@H]1O (single isomer, unassigned; (+))	–	–	144	9550	–
C[C@]1(CO)OC(n2cc(C#N)c3c(O)ncnc32)[C@H](O)[C@@H]1O (single isomer, unassigned; (+))	9030	147	–	–	–
C[C@@H](O)[C@H]1OC(n2cc(C(=N)N)c3c(O)ncnc32)[C@H](O)[C@@H]1O (single isomer, unassigned; (+))	12100	159	–	–	–
N=C(N)C1=CN([C@H]2C[C@H](O)[C@@H](CO)O2)C2=NC=NC(=O)C12 (single isomer, unassigned; (+))	–	–	258	14700	–
C[C@@H](O)[C@H]1OC(n2cc(C#N)c3c(O)ncnc32)[C@H](O)[C@@H]1O (stereo not given in full)	13300	160	–	–	–
N=C(N)c1cn([C@@H]2O[C@H](CO)[C@@H](O)[C@@H]2O)c2nc[nH]c(=O)c12	7790	131	–	–	–
C[C@H](O)[C@H]1OC(n2cc(C(=N)NO)c3c(O)ncnc32)[C@H](O)[C@@H]1O (single isomer, unassigned; (+))	–	–	162	11400	–
CCCCCCCCCCCCC(=O)O[C@@H]1[C@@H](C)[C@@]2(O)[C@@H](C=C(CO)C[C@]3(O)C(=O)C(C)=C[C@@H]23)[C@@H]2C(C)(C)[C@]12OC(C)=O.C[C@H](CCC(=O)O)C[C@H](C)C[C@H](C)/C(O)=C/C(=O)[C@H](C)C[C@H](C)C/C=C/[C@@H](C)[C@@H](O)[C@@H](C)[C@@H](O)C[C@@H]1CC[C@@](C)([C@H]2CC[C@@](C)([C@@H](C)O)O2)O1	10400	–	–	–	Concentration (T-cell line [18]): 162 pg/mL; Concentration (T-cell line [9]): 10400 pg/mL; Concentration (T-cell line [10]): 27700 pg/mL; Concentration (T-cell line [11]): 2150 pg/mL; Concentration (T-cell line [12]): 93 pg/mL
